Measured values reported in US10238688B2, “Combination therapies for bladder cancer” (GENEDIA BIOTECH CO. LTD., priority 2015, dated 2019).

What was measured:
Assay type in all cases: cell-based, human
T24 = assay: MTT cell survival / IC50, T24 cells; conditions: for Cell survival (%): Table S3, ng/ml: Pi 40, Pa 160, EH 250, Ci 1500, Mi 200, 1=Ci/Mi, 2=EH/Ci/Mi, 3=Pa/Ci/Mi, 4=Pi/Ci/Mi; for Single drug 4X Cell Survival (%): ng/ml: EH 1000, Ci 6000, Mi 800, Pi 160, Pa 640, Ge 20, EH/Ci/Mi regimen
Procedure: (§1) The clinical grade of the chemotherapeutics (NCI Dictionary of Cancer Terms) was provided by the First Affiliated Hospital of Harbin Medical University: Pirarubicin (Pi, Wanle, Shenzhen), Paclitaxel (Pa, Taiji, Sichuan), Adriamycin (Ad, Pfizer, Jiangsu), Epirubicin Hydrochloride (EH, Haizheng, Zhejiang), Hydroxycamptothecin (Hy, Lishizhen, Hubei), Cisplatin (Ci, Haosen, Jiangsu), Gemcitabine (Ge, Haosen, Jiangsu) and Mitomycin (Mi, Haizheng, Zhejiang). The drug induced cell death was determined by a thiazolyl […] (MTT, 490 nm reading) based cell proliferation assay in the cultured cells following treatment by various concentrations of drugs for 72 hours. The relative chemoresistance to each drug of all cell lines was calculated with the lowest IC50 as a reference. The overall chemoresistance of each cell line was described as “chemoresistance index”, the numerator of the total relative IC50 to all the drugs over the number of drugs to rank the overall resistance state of each cell line to the six chemotherapeutics collectively.
(§2) The relative IC50 (fold) of each drug of all nine cell lines was normalized to the lowest IC50 in the most sensitive cell line (FIG. 2G), to describe the single drug resistance of cell lines. The overall chemoresistance of each cell line, a “chemoresistance index” (the numerator of the total relative IC50 over the number of drugs) (FIG. 2G) were calculated to rank the overall resistance state of each cell line to this six chemotherapeutics.
(§3) Twenty six-drug combinations at the indicated doses were initially generated through a random number generator (using MATLAB MathWorks©, Natick, Mass., U.S.) (The upper half of Table 1). The cell survival (% over the not drug control) of treated cells was determined and then used for a calculation of the average cumulative cell survival (%, ACS: the sum of cell survival (%) per combination divided by the number of cell lines tested). ACS<30% was used to separate the effective from the not-effective combinations.

SCaBER = assay: MTT cell survival / IC50, SCaBER squamous carcinoma cells; conditions: for Cell survival (%): Table S3, ng/ml: Pi 40, Pa 160, EH 250, Ci 1500, Mi 200, 1=Ci/Mi, 2=EH/Ci/Mi, 3=Pa/Ci/Mi, 4=Pi/Ci/Mi; for Single drug 4X Cell Survival (%): ng/ml: EH 1000, Ci 6000, Mi 800, Pi 160, Pa 640, Ge 20, EH/Ci/Mi regimen
Procedure: as §1, §2

[1] = system: bladder cancer cell lines; assay: Average cumulative cell survival (ACS) over the panel of cell lines tested; conditions: for ACS (%): eight cell lines, Table S3, ng/ml: Pi 40, Pa 160, EH 250, Ci 1500, Mi 200, 1=Ci/Mi, 2=EH/Ci/Mi, 3=Pa/Ci/Mi, 4=Pi/Ci/Mi; for ACS: four-fold dosed component drugs alone: Ci 6000 ng/mL, Mi 800 ng/mL, EH 1000 ng/mL (Table S4); for ACS (%) for cancer cells: seven cancer cell lines, ng/ml: EH 1000, Ci 6000, Mi 800, Pi 160, Pa 640, Ge 20, EH/Ci/Mi regimen
Procedure: as §1
The “Differential Evolution” algorithm guided experimental optimization (DE) consisted of three iterative operations: generating drug combinations of experimental testing, acquiring the efficacy of the generated drug combinations with biological assays and recalculating further improved drug combinations using a feedback search algorithm. This example first tested twenty drug combinations at randomized doses. These drug combinations were generated from a random integer matrix generator, coded in MATLAB™ language. These twenty drug combinations were then experimentally tested for cancer cell cytotoxicity. The experimental data were then subjected to calculation with a DE algorithm for new drug combinations based on three major mathematical calculations: “Mutation”, “Crossover” and “Selection”. The equations for each step can be found in the main test. The equations for each step are coded in MATLAB™ language.
as §3, with “combinations. Nine of the twenty combinations tested in the 1st round of iteration fell into this category (the lower half of Table 1).” for “combinations.”

Hypoxia pathway = assay: Cignal Finder dual-luciferase pathway reporter, Hypoxia; parameters: key to Relative activity, Hypoxia reporter: firefly/renilla ratio, background (negative control) subtracted; conditions: for Relative activity, Hypoxia reporter: luc/Renluc relative to negative control reporter, single drug at 4 folds vs EH/Ci/Mi combination
Procedure: (§4) The pathway analysis was performed with Qiagen's Cignal Finder Pathway Reporter Array systems according to the manufacturer's instructions. The pathway-focused dual-luciferase reporter construct was a mixture of an inducible transcription factor responsive firefly luciferase reporter and constitutively expressing renilla construct. Transcriptional response element (TRE) sequence response elements to each specific transcriptional factor triggered by the different signaling pathways are positioned before the TATA box of firefly luciferase reporter gene. The extent of activity of the reporter reflects the level of activity of the particular signaling pathway. CMV controlled renilla expression vector is co-transfected into the cell as an internal control. Non-inducible reporter construct that lacks the transcriptional factor binding sequence and could not be induced by any transcription factors is used as a negative control. Cells transfected with CMV directed firefly luciferase reporter gene serve as a positive control. Briefly, cells seeded in 6-well plates were transfected with Cignal finder pathway arrays according to the manufacturer's instructions (Qiagen). Then cells were seeded onto 96-well plates. Ci (6000 ng/mL), Mi (800 ng/mL), or EH (1000 ng/mL) and Ci/Mi/EH combination (Ci, 1500 ng/mL, Mi, 800 ng/mL and EH, 1000 ng/m L) were then added to the cells 24 h post-transfection. After 6 h of incubation with the different drugs at 37° C., cells were lysed and a dual luciferase assay (for firefly and renilla luciferase) was performed using a PromegaGloMax 20/20 illuminometer. The firefly luciferase activities were normalized over the renilla luciferase activities after background activity determined by luciferase activities of negative controls was subtracted. A triple test of cell survival under these drug doses was also performed by MTT assay following 18 h incubation at 37° C. […]

MAPK/ERK pathway = assay: Cignal Finder dual-luciferase pathway reporter, MAPK/ERK; conditions: for Relative activity, MAPK/ERK reporter: luc/Renluc relative to negative control reporter, single drug at 4 folds vs EH/Ci/Mi combination
Procedure: as §4

Question: What does the source list for `COc1cccc2c1C(=O)c1c(O)c3c(c(O)c1C2=O)C[C@@](O)(C(=O)CO)C[C@@H]3[C@@H]1C[C@H](N)[C@@H](O)[C@H](C)O1` [EH, (8R,10S)-10-((2S,4S,5R,6S)-4-amino-5-hydroxy-6-methyltetrahydro-2H-pyran-2-yl)-6,8,11-trihydroxy-8-(2-hydroxyacetyl)-1-methoxy-7,8,9,10-tetrahydrotetracene-5,12-dione]?
Answer: Cell survival (%) (T24): 20.13%; Single drug 4X Cell Survival (%) (T24): 17.79%; Cell survival (%) (SCaBER): 38.31%; Single drug 4X Cell Survival (%) (SCaBER): 6.67%; ACS (%) [1]: 39.75%; ACS [1]: 9.11%; ACS (%) for cancer cells [1]: 16.60%; relative drug trigged pathway activity over the no-drug level, Hypoxia (Hypoxia pathway; 5637 cells): 2.27 fold; Relative activity, Hypoxia reporter (Hypoxia pathway; 5637 cells): 51.46; relative drug trigged pathway activity over the no-drug level, Hypoxia (Hypoxia pathway; Biu87 cells): 2.26 fold; Relative activity, Hypoxia reporter (Hypoxia pathway; Biu87 cells): 17.13; relative drug trigged pathway activity over the no-drug level, Hypoxia (Hypoxia pathway; H-bc cells): 1.72 fold; Relative activity, Hypoxia reporter (Hypoxia pathway; H-bc cells): 57.60; relative drug trigged pathway activity over the no-drug level, Hypoxia (Hypoxia pathway; SV-HUC-1 cells): 1.74 fold; Relative activity, Hypoxia reporter (Hypoxia pathway; SV-HUC-1 cells): 44.00; digitalized pathway activity, Hypoxia (Hypoxia pathway; UM-UC-3 cells): 0 (null (0) if neither of the above holds); Relative activity, Hypoxia reporter (Hypoxia pathway; UM-UC-3 cells): 73.93; relative drug trigged pathway activity over the no-drug level, Hypoxia (Hypoxia pathway; Um-Uc-3 cells): 1.18 fold; relative drug trigged pathway activity over the no-drug level, MAPK/ERK (MAPK/ERK pathway; 5637 cells): 2.26 fold; Relative activity, MAPK/ERK reporter (MAPK/ERK pathway; 5637 cells): 117.70; digitalized pathway activity, MAPK/ERK (MAPK/ERK pathway; Biu87 cells): 0 (null (0) if neither of the above holds); relative drug trigged pathway activity over the no-drug level, MAPK/ERK (MAPK/ERK pathway; Biu87 cells): 1.24 fold; Relative activity, MAPK/ERK reporter (MAPK/ERK pathway; Biu87 cells): 608.33; digitalized pathway activity, MAPK/ERK (MAPK/ERK pathway; H-bc cells): 0 (null (0) if neither of the above holds); relative drug trigged pathway activity over the no-drug level, MAPK/ERK (MAPK/ERK pathway; H-bc cells): 0.75 fold; Relative activity, MAPK/ERK reporter (MAPK/ERK pathway; H-bc cells): 95.16; digitalized pathway activity, MAPK/ERK (MAPK/ERK pathway; SV-HUC-1 cells): 0 (null (0) if neither of the above holds); relative drug trigged pathway activity over the no-drug level, MAPK/ERK (MAPK/ERK pathway; SV-HUC-1 cells): 0.95 fold; Relative activity, MAPK/ERK reporter (MAPK/ERK pathway; SV-HUC-1 cells): 225.00; Relative activity, MAPK/ERK reporter (MAPK/ERK pathway; UM-UC-3 cells): 183.22; relative drug trigged pathway activity over the no-drug level, MAPK/ERK (MAPK/ERK pathway; Um-Uc-3 cells): 1.29 fold

Question: Which “Cell survival (%)” value (T24) does the source give for `COC12C(COC(N)=O)C3=C(C(=O)C(C)=C(N)C3=O)N1CC1NC12` (centres unmarked) [Mi, [6-Amino-8a-methoxy-5-methyl-4,7-dioxo-1,1a,2,4,7,8,8a,8b-octahydroazireno [2′,3′:3,4]pyrrolo[1,2-a]indol-8-yl]methyl carbamate] here?
Answer: 51.34%

Question: What about the “Single drug 4X Cell Survival (%)” value (T24) of the same compound?
Answer: 19.72%

Question: And the “Cell survival (%)” value (SCaBER)?
Answer: 56.83%

Question: What about the “Single drug 4X Cell Survival (%)” value (SCaBER) of the same compound?
Answer: 41.97%

Question: And the “ACS (%)” value [1]?
Answer: 56.85%

Question: And the ACS [1]?
Answer: 40.49%

Question: And the “ACS (%) for cancer cells” value [1]?
Answer: 40.49%

Question: And the “relative drug trigged pathway activity over the no-drug level, Hypoxia” value (Hypoxia pathway; 5637 cells)?
Answer: 3.31 fold

Question: And the “Relative activity, Hypoxia reporter” value (Hypoxia pathway; 5637 cells)?
Answer: 75.18

Question: What about the “relative drug trigged pathway activity over the no-drug level, Hypoxia” value (Hypoxia pathway; Biu87 cells) of the same compound?
Answer: 3.56 fold

Question: And the “Relative activity, Hypoxia reporter” value (Hypoxia pathway; Biu87 cells)?
Answer: 26.99

Question: What about the “digitalized pathway activity, Hypoxia” value (Hypoxia pathway; H-bc cells) of the same compound?
Answer: 0 (null (0) if neither of the above holds)

Question: What about the “relative drug trigged pathway activity over the no-drug level, Hypoxia” value (Hypoxia pathway; H-bc cells) of the same compound?
Answer: 0.58 fold

Question: And the “Relative activity, Hypoxia reporter” value (Hypoxia pathway; H-bc cells)?
Answer: 20.08

Question: And the “relative drug trigged pathway activity over the no-drug level, Hypoxia” value (Hypoxia pathway; SV-HUC-1 cells)?
Answer: 2.08 fold

Question: What about the “Relative activity, Hypoxia reporter” value (Hypoxia pathway; SV-HUC-1 cells) of the same compound?
Answer: 52.50

Question: And the “digitalized pathway activity, Hypoxia” value (Hypoxia pathway; UM-UC-3 cells)?
Answer: 0 (null (0) if neither of the above holds)

Question: What about the “Relative activity, Hypoxia reporter” value (Hypoxia pathway; UM-UC-3 cells) of the same compound?
Answer: 45.95

Question: What about the “relative drug trigged pathway activity over the no-drug level, Hypoxia” value (Hypoxia pathway; Um-Uc-3 cells) of the same compound?
Answer: 0.73 fold

Question: What about the “relative drug trigged pathway activity over the no-drug level, MAPK/ERK” value (MAPK/ERK pathway; 5637 cells) of the same compound?
Answer: 3.73 fold

Question: And the “Relative activity, MAPK/ERK reporter” value (MAPK/ERK pathway; 5637 cells)?
Answer: 194.59

Question: And the “relative drug trigged pathway activity over the no-drug level, MAPK/ERK” value (MAPK/ERK pathway; Biu87 cells)?
Answer: 2.04 fold

Question: What about the “Relative activity, MAPK/ERK reporter” value (MAPK/ERK pathway; Biu87 cells) of the same compound?
Answer: 1001.57

Question: What about the “relative drug trigged pathway activity over the no-drug level, MAPK/ERK” value (MAPK/ERK pathway; H-bc cells) of the same compound?
Answer: 0.45 fold

Question: And the “Relative activity, MAPK/ERK reporter” value (MAPK/ERK pathway; H-bc cells)?
Answer: 59.07

Question: What about the “digitalized pathway activity, MAPK/ERK” value (MAPK/ERK pathway; SV-HUC-1 cells) of the same compound?
Answer: 0 (null (0) if neither of the above holds)

Question: And the “relative drug trigged pathway activity over the no-drug level, MAPK/ERK” value (MAPK/ERK pathway; SV-HUC-1 cells)?
Answer: 1.42 fold

Question: What about the “Relative activity, MAPK/ERK reporter” value (MAPK/ERK pathway; SV-HUC-1 cells) of the same compound?
Answer: 335.00

Question: And the “digitalized pathway activity, MAPK/ERK” value (MAPK/ERK pathway; UM-UC-3 cells)?
Answer: 0 (null (0) if neither of the above holds)

Question: And the “Relative activity, MAPK/ERK reporter” value (MAPK/ERK pathway; UM-UC-3 cells)?
Answer: 151.35

Question: And the “relative drug trigged pathway activity over the no-drug level, MAPK/ERK” value (MAPK/ERK pathway; Um-Uc-3 cells)?
Answer: 1.06 fold
